Reference: ChEMBL document CHEMBL4819041 (J Med Chem, 2021)

Legend:
Assay type in all cases: organism-based
Conditions in all cases: in vivo
[1] = Toxicity in Balb/c nude mouse xenografted with human MDA-MB-231 cells assessed as dose toleration at 20 mg/kg, ip QD
[2] = Toxicity in Balb/c nude mouse xenografted with human MDA-MB-231 cells assessed as change in body weight at 20 mg/kg, ip QD
[3] = Toxicity in Balb/c nude mouse xenografted with human MDA-MB-231 cells assessed as adverse effect at 20 mg/kg, ip QD
[4] = Toxicity in Balb/c nude mouse xenografted with human MDA-MB-231 cells assessed as normal feeding at 20 mg/kg, ip QD
[5] = Toxicity in Balb/c nude mouse xenografted with human MDA-MB-231 cells assessed as normal inquisitiveness at 20 mg/kg, ip QD

Measured: Activity

CNCc1ccccc1CN(CC(=O)Nc1ccc2c(c1)CC1(C2)C(=O)Nc2ncccc21)C(=O)C(C)(C)C (stereo not given)
Non-Toxic: all assays above
